Tests used:
Tph2 = biological target: T1, Tph2 (Homo sapiens, UniProt Q8IWU9); details: in vitro; cited from earlier work
T1 sequence (Q8IWU9 1-490): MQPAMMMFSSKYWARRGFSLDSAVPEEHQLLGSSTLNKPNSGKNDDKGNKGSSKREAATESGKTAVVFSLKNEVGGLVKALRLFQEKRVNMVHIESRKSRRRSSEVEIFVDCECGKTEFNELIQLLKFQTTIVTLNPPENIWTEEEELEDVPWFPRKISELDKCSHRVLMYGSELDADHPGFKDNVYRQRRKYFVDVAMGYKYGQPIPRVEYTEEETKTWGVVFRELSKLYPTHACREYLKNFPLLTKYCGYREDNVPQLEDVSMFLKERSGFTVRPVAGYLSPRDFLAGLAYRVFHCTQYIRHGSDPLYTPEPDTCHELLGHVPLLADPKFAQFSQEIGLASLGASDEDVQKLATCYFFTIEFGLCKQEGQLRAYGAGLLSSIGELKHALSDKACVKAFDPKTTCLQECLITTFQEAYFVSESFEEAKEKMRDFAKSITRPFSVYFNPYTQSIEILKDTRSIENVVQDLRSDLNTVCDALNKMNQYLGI

[1] = in vivo; cited from earlier work
[2] = system: hematopoietic compartment; test: Flow cytometry of hematopoietic cell populations in bone marrow (Example 11); assay type: in vivo, mice
Procedure: Freshly isolated bone marrow cells or spleen cells were resuspended in flow-staining buffer (PBS plus 2% FBS) and the primary conjugated antibodies were added. After 30 minutes incubation at 4° C., the cells were then washed twice before flow cytometry analysis. The following antibodies conjugated with fluorescein isothiocyanate (FITC), Allophycocyanin (APC) phycoerythrin (PE), PE-Cy7, APC-CY7, Pacific Blue, and Alexa 700 were used: Lineage cocktail (B220, CD19, IL-7R chain, CD3, DX5, Gr-1, Ter119, CD71 and CD41), B220 (6B2), CD19 (1D3), IgM (II/41), CD3 (KT31.1), CD4 (GK1.5), CD8 (53-6.7), Gr-1 (8C5), Mac1/CD11b (M1/70), Ter119, CD71 (C2), c-Kit (2B8), Sca-1 (E13-161-7), CD34 (RAM34), FcRII/III (2.4G2) or CD135/Flt-3 (all from Becton Dickinson, San Diego, Calif.).
The cell cycle analysis of LSK cells was determined by staining for 30 min at 37° C. with Hoechst 33342 (Molecular Probes) and pyronin Y (Sigma). Seven-color flow cytometry acquisition was performed using a LSR II flow cytometer (Becton Dickinson) and analysis using FLO-JO software (Treestar, Inc). Cells were gated for size, shape and granularity using forward and side scatter parameters. The positive populations were identified as cells that expressed specific levels of fluorescence activity above the nonspecific auto fluorescence of the isotype control. Nonspecific binding was reduced by preincubation with unconjugated anti-FcRII/III (2.4G2). For Flow sorting EL4-GFP-Luc cells were resuspended in flow staining buffer, and flow sorting was performed using FACSAria (BD). Sorted GFP positive cells were then subsequently cultured for 12 hours and injected into the mice.
The methods used in Example 8 to measure the various cell types were used.
Mice treated as described in Example 9 were examined.

serum serotonin = test: Serum serotonin levels, WEHI/3B study (Example 12); assay type: in vivo; details: non-leukemic mice treated with LP-533401 (NL-LP); BALB/cJ
Procedure: For measurements of serum serotonin levels, mice were briefly exposed to Isoflurane (Baxter) for 30 seconds and blood was collected by cardiac puncture. Similar volumes of blood were collected from different animals for consistency in the clotting times. Serum collection from all mice was done between 9:00 am and 12:00 pm. Blood was allowed to clot on ice for 5 minutes before centrifugation at maximum speed at 4° C. for 10 minutes. The serum supernatant was removed, snap frozen and stored at −80° C. for further analysis. Serum serotonin levels were quantified by ELISA (Serotonin kit, Fitzgerald) according to manufacturer's instructions. […]
All mice were sacrificed after 2 weeks for the following assessments: • Serum serotonin levels as measured in Example 9; • Body weight as described in Example 2 • Spleen weight as described in Example 2; • Histological analysis of the femur, spleen and liver as described in Example 2; • Trabecular Bone Volume (Bv/TV) as described in Example 3; • and • Gene Expression analysis by PCR as described in Example 3. […]

Nc1nc(OC(c2ccc(-c3cccc(F)c3)cc2)C(F)(F)F)cc(-c2ccc(C[C@H](N)C(=O)O)cc2)n1 (stereo partly shown) [LP-533401]
inhibition of Tph2 relative to Tph1 (Tph2): inhibits Tph2 as effectively as Tph1 | crossing of the blood-brain barrier [1]: did not cross the blood-brain barrier | numbers of LSK FLT3+ cells ([2]; healthy and leukemic mice): reduced the numbers | B-lymphopoiesis ([2]; leukemic animals): did not affect | GMP and CMP populations ([2]; leukemic mice): further suppressed their frequencies | LSK FLT3+ lymphoid progenitor cell subset (percentage) ([2]; leukemic mice): not affected | MEP subsets ([2]; leukemic mice): not affected | TER119+ erythroid progenitor cells ([2]; leukemic mice): increased | increase in CD3+ cells ([2]; leukemic mice): prevented the increase | increase in CD11b+GR1+ myeloid cells ([2]; leukemic mice): limited the increase | leukemia-induced increase of LSK cells in the bone marrow ([2]; leukemic mice): hampered | leukemia-reduced total bone marrow cellularity ([2]; leukemic mice): not altered | CMPs and MEPs ([2]; non-leukemic mice): not affected | GMPs and more mature myeloid cells ([2]; non-leukemic mice): decreased | LSK cells in the bone marrow compared to wild-type ([2]; non-leukemic mice): decrease | Ter119+ erythroid cells ([2]; non-leukemic mice): increased | lymphoid lineage, including B and T cells ([2]; non-leukemic mice): no effect | total bone marrow cellularity ([2]; non-leukemic mice): did not affect | decrease in serum serotonin levels compared to wild-type mice (serum serotonin): 50%
